Test results as given in PMC3913652 (PLoS ONE, 2014).

What was measured:
[1] = Stability in pancreatic digestive enzyme mix; type: in vitro ADME; details: 50 mM phosphate buffer pH 6.8, peptide 30 mM, 20:1 peptide to pancreatic mixture, 37°C, reverse-phase HPLC, AUC 0–2 h as % remaining vs stable control ± SEM, n = 3 (exenatide, [Leu^14]exenatide-ABP n = 2)
Experimental: Stability of peptides was also assessed in a mixture of amylase, lipase and protease (pancreatin, Cat.# P7545-25 g, Sigma-Aldrich, St. Louis, MO), which are digestive enzymes produced by pancreatic exocrine cells. Peptides (30 mM) in 50 mM phosphate buffer (pH 6.8) and citrate buffers (pH 4 & pH 5) were incubated for 2 hours in pancreatic mixture at 37°C (20∶1 ratio of peptide to pancreatic mixture) (n = 3). The enzymatic reaction was stopped with the addition of 0.2 N HCl (final concentration of peptide 10 mM) at each time point.

rat GLP-1 receptor = target: T1, rat GLP-1 receptor (Rattus norvegicus, UniProt P32301); assay: GLP-1 receptor functional assay (cAMP); type: cell-based; details: 6–23 clone 6 cells, HBSS 0.1% BSA, 250 µM IBMX, 30 minutes, quadruplicates
T1 construct: 6–23 clone 6 cells endogenously expressing the rat GLP-1 receptor; endogenous in cells; host or cells: 6-23 clone 6 cells
T1 sequence (P32301 22-463): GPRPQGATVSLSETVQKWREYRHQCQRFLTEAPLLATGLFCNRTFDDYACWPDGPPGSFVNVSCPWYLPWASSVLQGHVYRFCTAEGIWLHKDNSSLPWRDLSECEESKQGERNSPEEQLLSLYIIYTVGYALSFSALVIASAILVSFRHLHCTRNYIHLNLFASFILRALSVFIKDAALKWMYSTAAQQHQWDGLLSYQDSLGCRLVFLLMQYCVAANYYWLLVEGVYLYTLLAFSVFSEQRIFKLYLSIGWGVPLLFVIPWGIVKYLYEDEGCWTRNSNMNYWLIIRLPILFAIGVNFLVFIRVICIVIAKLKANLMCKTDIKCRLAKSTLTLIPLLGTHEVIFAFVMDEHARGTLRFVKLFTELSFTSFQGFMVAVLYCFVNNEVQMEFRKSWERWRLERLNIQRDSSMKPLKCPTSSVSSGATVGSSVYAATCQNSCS
Experimental: Following 30 minutes incubation, the cAMP was measured using the cAMP Dynamic 2 assay (Cisbio US, Bedford, MA) as per the manufacturer’s instructions. cAMP was detected by a decrease in time-resolved fluorescence energy transfer using a GeniousPro plate reader (Tecan US, San Jose, CA).
Results are presented as means ± SEM, graphed and analyzed using GraphPad Prism 5®. The potency of peptides in the in vitro functional assay and in an OGTT was determined by the analysis of concentration-response curves using non-linear regression analysis.

In the case of `CC[C@H](C)[C@H](NC(=O)[C@H](Cc1c[nH]cn1)NC(=O)[C@H](CC(C)C)NC(=O)[C@H](CCCCN)NC(=O)[C@H](CC(C)C)NC(=O)[C@H](C)NC(=O)[C@H](CCC(=O)O)NC(=O)[C@@H](NC(=O)CNC(=O)[C@H](CCC(=O)O)NC(=O)[C@@H](NC(=O)[C@@H](NC(=O)[C@H](CCCCN)NC(=O)[C@H](C)NC(=O)[C@H](CCCCN)NC(=O)[C@H](CC(N)=O)NC(=O)[C@@H](NC(=O)[C@H](CC(C)C)NC(=O)[C@H](CCCNC(=N)N)NC(=O)[C@H](CCCCN)NC(=O)[C@H](Cc1ccc(O)cc1)NC(=O)[C@H](Cc1ccccc1)NC(=O)[C@H](CC(=O)O)NC(=O)[C@H](CO)NC(=O)[C@@H](NC(=O)CNC(=O)[C@H](Cc1ccc(O)cc1)NC(=O)[C@H](CCCCN)NC(=O)[C@H](CC(=O)O)NC(=O)[C@H](CC(C)C)NC(=O)[C@H](CCC(=O)O)NC(=O)[C@H](CCCNC(=N)N)NC(=O)[C@H](CC(N)=O)NC(=O)[C@H](C)NC(=O)[C@H](CC(C)C)NC(=O)[C@@H](NC(=O)[C@H](CCCCN)NC(=O)[C@H](C)NC(=O)[C@H](CCC(=O)O)NC(=O)[C@H](C)NC(=O)[C@@H](N)CC(C)C)C(C)C)C(C)C)[C@@H](C)CC)[C@@H](C)O)C(C)C)C(C)C)C(=O)N[C@@H](CC(C)C)C(=O)N[C@@H](C)C(=O)N[C@@H](C)C(=O)N[C@@H](CC(C)C)C(=O)N1CCC[C@H]1C(=O)O` [ABD035], the “2 h Stability in Pancreatin Mix (%) pH 6.8” value [1] was 10±2% and the “GLP-1 Receptor Functional Assay EC50” value (rat GLP-1 receptor) was “not active”.
